For 103 compounds, outcome results are on record in PubChem BioAssay AID1189 (EPA DSSTox, 2008).

Activity calls are given as the source filed them.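 How the source made its calls: active means a tumor-causing dose value with its tumor site reported for any sex and species group of a rodent or other animal cancer study; inconclusive means only studies judged inadequate by the national testing program; inactive means tested in at least one study, none positive.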

The data set in a line: DSSTox (CPDBAS) Carcinogenic Potency Database Summary SingleCellCall Results. The following applies: animal chronic carcinogenicity bioassays, CPDB summary call. In outline: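 Categorical carcinogenicity call compiled from published chronic rodent and other animal cancer bioassays; based on the most positive result across experiments for each sex-species, assigned on minimal evidence for or against activity.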
As for `CS(=O)(=O)OCCCCOS(C)(=O)=O`, the outcome was inactive.
As for `CC/C(C)=N/O`, the outcome was “active; inactive”.
For `CCCCC(CC)CO` (stereo not drawn) the value was “active; inactive”; for `Oc1ccc2ccccc2c1N=Nc1ccccc1`, “active”; for `ClCC(Cl)Cl`, “active”.
The result for `c1ccc2c(c1)Oc1ccccc1O2` reads “inactive; active”.
For `O=NO` the value was “active”; for `ClCCl`, “active”.
Regarding `CC(=O)OC[C@H]1O[C@H](O[C@]2(COC(C)=O)O[C@H](COC(=O)C(C)C)[C@@H](OC(=O)C(C)C)[C@@H]2OC(=O)C(C)C)[C@H](OC(=O)C(C)C)[C@@H](OC(=O)C(C)C)[C@@H]1OC(=O)C(C)C`, the outcome was inactive.
In the case of `Nc1nc(=S)c2ncn([C@H]3C[C@H](O)[C@@H](CO)O3)c2[nH]1`, the outcome was active.
Take `O=C1c2cccc(O)c2C(=O)c2c(O)cccc21`: the outcome was active.
As to `CC[C@H]1OC(=O)[C@H](C)[C@@H](O[C@H]2C[C@@](C)(OC)[C@@H](O)[C@H](C)O2)[C@H](C)[C@@H](O[C@@H]2O[C@H](C)C[C@H](N(C)C)[C@H]2O)[C@](C)(O)C[C@@H](C)C(=O)[C@H](C)[C@@H](O)[C@]1(C)O`, the outcome was “inactive; active”.
The result for `O=C(O)CN(CCN(CC(=O)O)CC(=O)O)CC(=O)O` reads “inactive”; that for `CN(CCCC(=O)c1cccnc1)N=O`, “active”; that for `FC(F)(Cl)C(F)(Cl)Cl`, “inactive; active”.
As for `CCCCNC(=O)N(CCCC)N=O`, the result was active.
For `Cn1c(=O)c2[nH]cnc2n(C)c1=O` the value was “inactive; active”; for `COC(=O)C(c1ccccc1)C1CCCCN1N=O` (stereo not drawn), “inactive”.
On to `OCC1CO1` (stereo not drawn), for which the result was active.
For `O=[N+]([O-])c1cc(N(CCO)CCO)ccc1NCCO`, the result was inactive.
On to `Cc1cc(C)c(N=Nc2c(O)c(S(=O)(=O)O)cc3cc(S(=O)(=O)O)ccc23)cc1C`, for which the outcome is “active; inactive”.
For `OCc1ccccc1` the value was “inactive”; for `CN(N=O)C(=O)N[C@@H]1[C@@H](O)[C@H](O)[C@@H](CO)O[C@@H]1O`, “active”.
Consider `CC1=C[C@H]2O[C@@H]3[C@H](O)[C@@H](O)[C@@](C)(C34CO4)[C@@]2(CO)[C@H](O)C1=O` (stereo partly drawn), for which the outcome is “inactive; active”.
Consider `O=C1O[C@H]([C@H](O)CO)C(O)=C1O`, for which the outcome is “inactive; active”.
The result for `O` reads “inactive”.
For `ClCC(Cl)(Cl)Cl`, the outcome was “active; inactive”.
Regarding `Nc1ccccc1C(=O)O`, the outcome is “inactive; active”.
For `COc1cc(NC(=O)C(N=Nc2ccc(-c3ccc(N=NC(C(C)=O)C(=O)Nc4cc(OC)c(Cl)cc4OC)c(Cl)c3)cc2Cl)C(C)=O)c(OC)cc1Cl` (stereo not drawn), the result was inactive.
For the compound `Cc1ccc2cc3c(ccc4ccccc43)c3c2c1CC3`, the outcome was “active; inactive”.
For `ClCC(Br)CBr` (stereo not drawn) the value was “active”.
For `OCC(CO)(CBr)CBr` the value was “active”; for `C=CCc1ccc(OC)cc1`, “active”; for `Nc1ccc2c(c1)C(=O)c1ccccc1C2=O`, “active”.
The result for `C[C@H](CCC(=O)O)[C@H]1CC[C@H]2[C@@H]3[C@H](O)C[C@@H]4C[C@H](O)CC[C@]4(C)[C@H]3CC[C@]12C` reads “inactive”.
As to `CC(=O)CN(CCO)N=O`, the outcome was active.
For `C/C=N/O` the value was “inactive”.
For `O=[N+]([O-])c1ccc(NCCO)c(OCCO)c1`, the outcome was inactive.
In the case of `CCCCN(N)CCCC`, the outcome was active.
As to `Nc1nc(-c2ccc([N+](=O)[O-])cc2)cs1`, the result was active.
In the case of `CC1=CC(=O)NS(=O)(=O)O1`, the result was inactive.
The result for `C/C(=C(\CCOC(=O)c1ccccc1)SC(=O)c1ccccc1)N(C=O)Cc1cnc(C)nc1N` reads “inactive; active”; that for `O=C1O[C@H]([C@@H](O)CO)C(O)=C1O`, “inactive”; that for `C=C(C)C(=O)Nc1ccc(Cl)c(Cl)c1`, “inactive”.
As to `CC(=O)Nc1ccc(S(=O)(=O)O)c2cc(S(=O)(=O)O)c(N=Nc3ccc(N=Nc4ccc(S(=O)(=O)O)cc4)c4ccc(S(=O)(=O)O)cc34)c(O)c12`, the outcome was “inactive; active”.
The result for `CC1CN(/N=C/c2ccc([N+](=O)[O-])o2)C(=O)N1` (stereo not drawn) reads “active”; that for `O=[N+]([O-])c1ccc(-c2nc(N3CCOCC3)c3ccccc3n2)s1`, “active”; that for `O=CNNC=O`, “active”.
For `CN(N=O)C1=Nc2ccc(Cl)cc2C(c2ccccc2)=[N+]([O-])C1` the value was “inactive”; for `N[C@@H](Cc1ccc(N(CCCl)CCCl)cc1)C(=O)O`, “active”.
Take `CC1CO1` (stereo not drawn): the outcome was active.
On to `CN(C)NC(=O)CCC(=O)O`, for which the result was active.
On to `C/C=C/Cl`, for which the outcome was active.
Consider `Nc1c(Cl)cc(Cl)cc1Cl`, for which the outcome was active.
For `O=C(CCl)c1ccccc1` the value was “inactive; active”; for `CCN(N)C=O`, “active”; for `CCCCCCCCCc1ccc(OCCOCCO)cc1`, “inactive; active”.
For `COc1ccc(CCN2CCC(Nc3nc4ccccc4n3Cc3ccc(F)cc3)CC2)cc1` the value was “inactive”.
In the case of `ClC(Cl)(Cl)Cl`, the outcome was “active; inactive”.
The result for `CC1=C(C)C(=O)C(C(CCCCCC(=O)O)c2ccccc2)=C(C)C1=O` (stereo not drawn) reads “inactive”; that for `CCOC1=C(O)C(=O)O[C@@H]1[C@@H](O)CO`, “inactive”.
For `O=S(=O)(O)CCS`, the outcome is “inactive; active”.
For the compound `COC(=O)C(C)(C)Oc1ccc(-c2ccc(Cl)cc2)cc1`, the outcome was active.
Turning to `C=CC(=O)NCO`, the outcome was “active; inactive”.
The result for `C[C@@H]1C[C@H](C)CN(S(=O)(=O)c2ccc(Cl)c(C(=O)O)c2)C1` reads “active”.
On to `O=NN1CC(=O)NC1=O`, for which the outcome was active.
Take `OCCBr`: the outcome is “active; inactive”.
Consider `Nc1ccc(Cc2ccc(N)cc2)cc1`, for which the outcome was “active; inactive”.
Consider `C=CC1=C(C)C2=CC3=NC(=C(CC(=O)[O-])C4=NC(=C(C)C4=C([O-])[O-])C=c4[n-]c(c(C)c4CC)=CC1=N2)[C@@H](CCC(=O)[O-])[C@@H]3C.[Cu+2].[Na+].[Na+].[Na+]`, for which the result was inactive.
For `O=S1(=O)OCCO1` the value was “inactive”.
Consider `CC(=O)Nc1ccc(-c2ccccc2)cc1O`, for which the outcome is “inactive; active”.
For `Cc1cc(=O)n(-c2ccccc2)n1C`, the outcome was “active; inactive”.
Regarding `Cc1cc(C)nc(-c2ccc([N+](=O)[O-])o2)n1`, the result was active.
As for `[Cl-].[Cl-].[Hg+2]`, the result was active.
Turning to `Nc1ccc(N)c2c1C(=O)c1c(N)ccc(N)c1C2=O`, the outcome was active.
As for `CCOC(=O)C(C)(C)Oc1ccc(Cl)cc1`, the outcome was active.
On to `Nc1ccc(-c2ccc(F)cc2)cc1`, for which the outcome was active.
With `N/C(=N\O)c1ccc([N+](=O)[O-])o1`, the result was inactive.
Take `Nc1ccc(NC(=O)c2ccc(N)cc2)cc1`: the outcome is “inactive; active”.
Take `O=C(Nc1ccc([N+](=O)[O-])cc1Cl)c1cc(Cl)ccc1O`: the result was inactive.
As for `CC(/C=C/C=C(\C)C(=O)O[C@@H]1O[C@H](CO[C@@H]2O[C@H](CO)[C@@H](O)[C@H](O)[C@H]2O)[C@@H](O)[C@H](O)[C@H]1O)=C\C=C\C=C(C)\C=C\C=C(/C)C(=O)O[C@@H]1O[C@H](CO[C@@H]2O[C@H](CO)[C@@H](O)[C@H](O)[C@H]2O)[C@@H](O)[C@H](O)[C@H]1O`, the result was inactive.
For `O=S1(=O)N=C(O)c2ccccc21` the value was “inactive”; for `O=[Se]=O`, “inactive”; for `COc1cc2c(c3oc(=O)c4c(c13)CCC4=O)C1C=COC1O2` (stereo not drawn), “active”.
In the case of `CCc1ccc(C(c2ccc(CC)cc2)C(Cl)Cl)cc1`, the outcome was inactive.
The result for `CCNc1nc(Cl)nc(NCC)n1` reads “inactive”; that for `Nc1ccc(-c2ccccc2)cc1`, “active”; that for `O=S1(=O)CCCO1`, “active”.
For `ClC1=C(Cl)[C@@]2(Cl)[C@@H]3[C@@H](Cl)[C@H](Cl)C[C@@H]3C1(Cl)C2(Cl)Cl` the value was “active”.
The result for `O=C(Oc1ccccc1)Oc1ccccc1` reads “inactive”; that for `O=NN(CC(=O)O)CC(=O)O`, “inactive”.
Regarding `CC(C)=CCC/C(C)=C/C=O`, the result was inactive.
With `CN1C(=O)OC(C)(C)C1=O`, the result was inactive.
The result for `CC(=O)N(C(C)=O)c1cccc2c1Cc1ccccc1-2` reads “active”; that for `CC1(C)S[C@@H]2[C@H](NC(=O)COc3ccccc3)C(=O)N2[C@H]1C(=O)O`, “inactive”; that for `COC(C(=O)O)c1ccccc1` (stereo not drawn), “inactive; active”.
As to `O=C1CCC(=O)O1`, the outcome was inactive.
The result for `Nc1c(F)c(N)c(F)c(F)c1F` reads “active; inactive”; that for `CC1(C)C(=O)Nc2ccc(C3=NNC(=O)CC3)cc21`, “active”.
On to `CC[C@H]1OC(=O)C[C@@H](O)[C@H](C)[C@@H](O[C@@H]2O[C@H](C)[C@@H](O[C@H]3C[C@@](C)(O)[C@@H](O)[C@H](C)O3)[C@H](N(C)C)[C@H]2O)[C@@H](CC=O)C[C@@H](C)C(=O)/C=C/C(C)=C/C1CO[C@@H]1O[C@H](C)[C@@H](O)[C@@H](OC)[C@H]1OC` (stereo partly drawn), for which the result was inactive.
For `Nc1c(Cl)c(Cl)nc(C(=O)O)c1Cl` the value was “inactive”.
For `CCC(O)OC(O)CC` (stereo not drawn) the value was “inactive”.
Take `O=C1OC(=O)c2ccccc21`: the result was inactive.
